# From patent publication US9629822B2, “Flavonoid based antiviral targets” (UNIVERSITY OF CENTRAL FLORIDA RESEARCH FOUNDATION, INC., priority 2012, dated 2017)
# Like-named read-outs stand apart in the source and are kept apart here.
# Assays:
# CHO cells = test: CHO cell toxicity, MTS assay, 48 h; format: cell-based, Chinese hamster; conditions: Cricetulus griseus, CHO, 37° C., MTS reagent, read-out: CHO 48 h IC50 value
# Method: In each case, the chalcone system 8 was more toxic than the corresponding ring-closed system, 9.
# The CHO assay was conducted to assess the general toxicity of each flavonoid drug. Briefly, cell growth was assayed in sterile 96-well microtiter plates (Costar 3599, Corning, N.Y., USA) in the presence of each drug. Experiments were conducted in triplicate. CHO cells were plated at 10,000 cells/mL. Drug solutions were prepared in 100% DMSO and dosed so that the final DMSO concentration was <1%. For example, 1 μL of drug solution was added to the CHO cells plated in each well in 100 μL of media. Drug additions occurred after an initial overnight incubation of CHO cells in each well. After drug was added, the cells were incubated in 5% CO2 for 48 h at 37° C. The MTS reagent (Promega Cell Titer 96 Aqueous non-radioactive cell proliferation reagent) was added (20 μL) and the CHO cells were incubated for an additional 4h and then absorbance at 490 nm was measured on a BioTek Synergy MX plate reader. […] IC50 values were determined from the corresponding plot of relative absorbance at 490 nm vs drug concentration.
# HIV-1 BaL = test: Anti-HIV assay (luciferase, HIV-1 BaL infection); format: cell-based
# Method: Assays were performed below in accordance with the procedures set forth in The Journal of Immunology, 2006, 176, pp. 6900-905; AIDS Research and Human Retroviruses, 2004, 20:11, pp. 1157-1665.^32,33 Cells were treated with 2 ng/mL p24 of HIV-1 BaL administered; MOI approx 0.02 (see refs 32, 33). Cells were treated with 2 ng/mL p24 of HIV-1 BaL administered; MOI approx 0.02 (see refs 32, 33).
# US28 receptor = target: T1, US28 receptor (Human cytomegalovirus, UniProt P69332); test: PathDetect trans Elk1 luciferase reporter gene assay in US28-transfected 293T HEK cells; format: cell-based, Human Cytomegalovirus (HCMV); conditions: for EC50: 293T HEK cells transiently expressing US28, Elk1 reporter; for type of activity on the US28 receptor (agonist / inverse agonist / none), in words: Elk1 reporter, US28-transfected HEK cells; for Emax: read-out: Efficacy(%), maximum intrinsic activity from dose-response curve
# T1 construct: expressed in transfected cells; host or cells: HEK 293T cells, transiently transfected
# Source text: Having generated a homologous series of chalcones and flavones, their ability to interact with the US28 receptor in human embryonic kidney (HEK) cells was investigated using an Elk-1 gene reporter assay (FIG. 2). HEK cells were transfected with either an empty vector (i.e., mock cells) or with a vector carrying US 28. These matched HEK cells provided a means to evaluate off-target effects as well as innate drug toxicity. As many of the flavonoid drugs were not water-soluble, all drug stock solutions were made in 100% dimethylsulfoxide (DMSO). The final DMSO concentration for each cell-based experiment, however, was 1% DMSO. To account for the presence of DMSO, 1% DMSO controls were run in parallel. […] values of the homologous series were also determined in Chinese hamster ovary (CHO) cells in order to assess the relative toxicities of each member of the series in a different cell line (see Table 1).
# Interaction with the US28 receptor was measured by a decrease in luminescence using a firefly (Photinus pyralis) luciferase-based PathDetect Elk1 gene reporter assay (FIG. 2).^23,24 This assay assessed the modulation of US28-mediated activation of mitogen-activated protein kinase (MAPK) signaling pathways (results are shown in Table 1). […] Such compounds which reduce MAPK signaling will have direct utility in the treatment of proliferative disorders including but not limited cancer.
# After transfection the US28 is expressed and activates MAPK. The MAPK phosphorylates the activator domain of the GAL4dbd/Elk1 fusion protein, and causes its dimerization. The dimer then binds to the GAL4 UAS region of the reporter gene and allows for luciferase transcription. The luciferase mRNA is then translated and the luciferase protein is detected via luminescence by the use of the Bright-Glo reagent.
# The efficacy of each compound on the US28 receptor was investigated in luciferase based reporter gene assay PathDetect trans Elk1 (Agilent, Stratagene)^23 as described previously.^13 Briefly, the human embryonic kidney (HEK) 293T cells were transiently-transfected with 0.1 μg Elk1, 5 μg Luc, and 5 μg of US28 vector or empty pcDNA3 vector (mock cells). Five hours after transfection, the cells were washed with DMEM containing 1% FBS, harvested, seeded in a white half-area 96-well plate (20,000 cells/well) and incubated with the indicated concentrations of test compounds. The incubation buffer consisted of DMEM, 1% FBS, 2 mM L-glutamine, 1% penicillin-streptomycin and 1% DMSO. The cells were incubated at 37° C. in the humid atmosphere with 5% CO2 for an additional 20-24 hours. The luciferase substrate BrightGlo (Promega) was used according to the manufacturer's instruction. The luminescence intensity was acquired using microplate reader Victor3V (Perkin-Elmer). The basal luminescence of mock transfected cells was approximately 500 RLU and the basal luminescence of US28-transfected cells was 4-5-fold higher (2000-2500 RLU). As the inhibitors gave differential responses in terms of their ability to reduce US 28 mediated signaling, their relative EC50 values were determined by dosing the US-28 transfected HEK cells with increasing concentrations of each compound. In this case, the EC50 value is the concentration of the compound needed to provoke a response halfway between the compound's maximal response (change in luminescence) and the no-compound control in the same US-28 transfected cell line. A plot of relative luminescence versus log of the compound concentration provided a dose-response curve from which the % efficacy was derived via non-linear regression methods using the algorithms in PRISM 5.0 (GraphPad Software, San Diego, Calif.).
# [1] = TZMbI assay for cell safety (cell viability and growth, CytoTox Glo); conditions: human, TZMbI cells, read-out: % decrease in viability compared to 0.1% DMSO vehicle based on viable cell luminescence
# Method: Assays were performed below in accordance with the procedures set forth in The Journal of Immunology, 2006, 176, pp. 6900-905; AIDS Research and Human Retroviruses, 2004, 20:11, pp. 1157-1665.^32,33 TZMbI assays for cell safety were performed to identify potential anti-viral compounds. TZMbI assays for cell safety were performed to identify potential anti-viral compounds per the methods.
# [2] = 10 μM, Experiment 1B, 2 ng/mL p24 HIV-1 BaL
# [3] = Human immunodeficiency virus 1, BAL, 2.5 μM, Experiment 2B
# [4] = Human immunodeficiency virus 1, BAL, 5 μM, Experiment 2B
# [5] = Human immunodeficiency virus 1, BAL, 10 μM, Experiment 1B, 2 ng/mL p24 HIV-1 BaL
# [6] = Human immunodeficiency virus 1, BAL, 10 μM, Experiment 2B
# [7] = Human immunodeficiency virus 1, BAL, 20 μM, Experiment 2B
# [8] = Human immunodeficiency virus 1, BAL, 40 μM, Experiment 2B
# [9] = EC50 (μM), NE = no effect when tested at 10 μM of compound
# T1 sequence (P69332 whole entry): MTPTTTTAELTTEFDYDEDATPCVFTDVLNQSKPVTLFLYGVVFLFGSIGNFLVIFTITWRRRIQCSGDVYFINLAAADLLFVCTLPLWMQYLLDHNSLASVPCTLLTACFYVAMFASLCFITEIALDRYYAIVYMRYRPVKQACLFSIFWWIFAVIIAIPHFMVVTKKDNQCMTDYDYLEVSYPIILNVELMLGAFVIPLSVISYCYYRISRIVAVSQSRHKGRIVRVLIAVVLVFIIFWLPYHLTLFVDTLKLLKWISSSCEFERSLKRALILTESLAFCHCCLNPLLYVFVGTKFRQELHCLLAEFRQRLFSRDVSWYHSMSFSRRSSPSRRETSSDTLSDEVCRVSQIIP
SMILES,IC50 (CHO cells) [µM],"RLU (relative luciferase units) (HIV-1 BaL; 2.5 μM, Experiment 2B) [RLU]","RLU (relative luciferase units) (HIV-1 BaL; 5 μM, Experiment 2B) [RLU]",RLU (relative luciferase units) (HIV-1 BaL; [2]) [RLU],"RLU (relative luciferase units) (HIV-1 BaL; 10 μM, Experiment 2B) [RLU]","RLU (relative luciferase units) (HIV-1 BaL; 20 μM, Experiment 2B) [RLU]","RLU (relative luciferase units) (HIV-1 BaL; 40 μM, Experiment 2B) [RLU]",inhibition at 2.5 µM (HIV-1 BaL; [3]) [%],inhibition at 5 µM (HIV-1 BaL; [4]) [%],inhibition at 10 µM (HIV-1 BaL; [5]) [%],inhibition at 10 µM (HIV-1 BaL; [6]) [%],inhibition at 20 µM (HIV-1 BaL; [7]) [%],inhibition at 40 µM (HIV-1 BaL; [8]) [%],EC50 (US28 receptor; [9]) [µM],EC50 (US28 receptor; pEC50 ± SEM) [µM],melting point [°C],cytotoxicity at 5 μM ([1]; Experiment 2A) [%],cytotoxicity at 10 μM ([1]; Experiment 1A) [%],cytotoxicity at 10 μM ([1]; Experiment 2A) [%],cytotoxicity at 20 μM ([1]; Experiment 2A) [%],further results
"CCOc1ccc(Br)cc1-c1oc2ccccc2c(=O)c1O [Compound 9c, 2-(5-Bromo-2-ethoxyphenyl)-3-hydroxy-4H-chromen-4-one]",13.5 ± 1.3,30.81,33.63,727.6,49.29,69.09,88.45,-6.23,-0.19,22.3,0.1,14.8,64.2,0.8,0.832,149 to 155,-0.19,-8.9,0.1,14.8,"type of activity on the US28 receptor (agonist / inverse agonist / none), in words (US28 receptor): inhibited US28 activity; cytotoxicity at 2.5 μM ([1]; Experiment 2A): -6.23%; cytotoxicity at 40 μM ([1]; Experiment 2A): 64.2%"
"COc1cc(Br)cc(-c2oc3ccccc3c(=O)c2O)c1OC [Compound 9d, 2-(5-Bromo-2,3-dimethoxyphenyl)-3-hydroxy-4H-chromen-4-one]",> 100,,10.04,452.5,25.14,41.25,68.82,,-7.87,51.7,-18.6,-23.7,-33.1,,,153 to 158,-7.87,-7.3,-18.6,-23.7,"RLU (relative luciferase units) (HIV-1 BaL; 80 μM, Experiment 2B): 59.85 RLU; inhibition at 80 µM (HIV-1 BaL; Human immunodeficiency virus 1, BAL, 80 μM, Experiment 2B): -8.38%; EC50 (US28 receptor; NE = no effect when tested at 10 μM of compound): > 10 µM; cytotoxicity at 40 μM ([1]; Experiment 2A): -33.1%; cytotoxicity at 80 μM ([1]; 80 μM, Experiment 2A): -8.38%"
"CCOc1ccc(Cl)cc1-c1oc2ccccc2c(=O)c1O [Compound 9i, 2-(5-chloro-2-ethoxyphenyl)-3-hydroxy-4H-chromen-4-one]",> 100,238.44,204.06,361.0,159.94,81.12,,8.25,26.1,61.4,41.5,74.6,,,0.309,156 to 159,10.7,21.8,18.7,21.6,"RLU (relative luciferase units) (HIV-1 BaL; 1.25 μM, Experiment 2B): 254.23 RLU; inhibition at 1.25 µM (HIV-1 BaL; Human immunodeficiency virus 1, BAL, 1.25 μM, Experiment 2B): 2.53%; type of activity on the US28 receptor (agonist / inverse agonist / none), in words (US28 receptor): inhibited US28 activity; Emax (US28 receptor; negative = inverse agonism): -41%; cytotoxicity at 1.25 μM ([1]; 1.25 μM, Experiment 2A): 10.8%; cytotoxicity at 2.5 μM ([1]; Experiment 2A): 6.19%"
"COc1cc(Br)cc(/C=C/C(=O)c2ccccc2O)c1OC [Compound 8d, (E)-3-(5-bromo-2,3-dimethoxyphenyl)-1-(2-hydroxyphenyl)prop-2-en-1-one]",7.2 ± 0.4,,,134.6,,,,,,85.8,,,,6.7,6.61,122 to 124,,72.9,,,"Efficacy(%) (US28 receptor; maximum intrinsic activity from dose-response curve, negative = inverse agonism): ~52%; Emax (US28 receptor; negative = inverse agonism): ~52%"
